The test system of series [1] is KRas wild type. As to the kind of experiment: Ras GTP Binding Domain Inhibition Assay, KRas wild type. Conditions: at 20 μM. The procedure, abridged: (§1)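 His-tagged GTPases, 10-30 μg/mL in Tris-HCl buffer (pH 7.4 or 7.0, MgCl2, DTT), were immobilised on nickel-coated wells overnight at 4° C. Compounds were added at 20 μM or as serial dilutions for IC50 in 1% DMSO for 3 h at room temperature, ±Sos(556-1049) in the final hour. Bound Cy3/Cy5-GTP (100 nM, 45 min) was read after washing.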

In series [2] the test system is KRas G12D mutant. As to the kind of experiment: Ras GTP Binding Domain Inhibition Assay, KRas G12D mutant. Conditions: at 20 μM; for KRas G12D mutant + SOS: % inh.: with SOS; for KRas G12D mutant: % inh.: without SOS. The procedure, abridged: as §1
For series [3], the system named is KRas G12C mutant. The experiment in a line: Ras GTP Binding Domain Inhibition Assay, KRas G12C mutant. Conditions: at 20 μM. The essentials: as §1
Series [4] has as its system Rho-A. The experiment in a line: Ras GTP Binding Domain Inhibition Assay, Rho-A. Conditions: at 20 μM. The procedure, abridged: as §1
The nature of series [5]: Assessment of plasma exposure in DBA/2J mice. In kind it is in vivo, mouse. Conditions: Group 4: 100 mg/kg PO, Vehicle 2 (Solubilized Lipid).
In series [6] the test system is Smad2 phosphorylation. The experiment in a line: Phospho-Smad2 western blot of D2-mdx mouse tissues. It is filed as in vivo. Conditions: 100 mg/kg IP daily for 3 days. An excerpt:
(§2) The experiment described herein was designed to monitor the effects of Compound 9 on two biomarkers related to fibrosis in D2-mdx mice. The first biomarker is Smad2 phosphorylation, and the second is the levels of serum albumin in the different muscle tissues. Fibrosis causes disruption of the fine transparent tubular sheath which envelops the fibers of skeletal muscles, this can result in various molecules from the blood and interstitial fluid leaking into myofibres. A classic example is serum albumin, which can be identified in tissue sections and considered to be hallmark of myofibre permeability.
(§3) Experimental Design: Compound 9 was suspended in 0.5% Hydroxypropyl Methylcellulose (HPMC)/0.1% Tween® 80 to a final concentration of 10 mg/mL. […]
(§4) Tissue protein extraction: Frozen tissues were placed on ice in prechilled tubes with 30 μL/mg with of ice-cold RIPA buffer+Halt™ Protease & Phosphatase Inhibitor Cocktail. […] Supernatant was removed and protein concentration determined by BCA assay.
(§5) Western blot protocol: Equal amounts of protein (15-50 μg) were separated by SDS-PAGE and transferred to nitrocellulose membranes (Invitrogen by Thermo Fisher Scientific). […] Membranes were blocked with 10% milk and albumin levels were assessed by incubating overnight at 4° C. with albumin antibody (Cell Signaling Technology #4929). […]
(Immunoblotting shows a protein as a band on a membrane.)

Series [7] has as its system serum albumin. The experiment in a line: Albumin western blot of D2-mdx mouse tissues. Conditions: D2-mdx mice, 100 mg/kg IP daily for 3 days. In kind it is in vivo.
Source text: as §2, §3, §4, §5

Series [8] in a line: Observation for overt toxicity in DBA/2J mice. In kind it is in vivo. Conditions: male DBA/2J mice, single dose, 100 mg/kg IP. As to the method: Experimental Design: Compound 9 was suspended in 0.5% Hydroxypropyl Methylcellulose (HPMC)/0.1% Tween® 80 to a final concentration of 10 mg/mL. The dosing solutions were prepared prior to the start of the test. Male DBA/2J mice (Jackson Stock No: 000671) were housed in solid bottom cages with standard chow and water ad libitum. Dosing was initiated when animals were 7-8 weeks old. Mice were dosed at a volume of 10 mL/kg by intraperitoneal (IP) injection at 100 mg/kg or vehicle. […] Blood was collected at 15 min, 30 min, 1 h, 2 h, 4 h, 7 h, 16 h, 24 h by cardiac puncture, mixed gently 8 times and put on ice until centrifuged within 30 minutes of collection. The plasma was transferred to a 96-well plate for analysis of test compound levels.

Series [9] is described as follows: Observation for overt toxicity in D2-mdx mice. In kind it is in vivo. To be noted: male D2-mdx mice, 100 mg/kg IP daily for 3 days. As to the method: Experimental Design: Compound 9 was suspended in 0.5% Hydroxypropyl Methylcellulose (HPMC)/0.1% Tween® 80 to a final concentration of 10 mg/mL. The dosing solutions were prepared prior to the start of the test and were stored in the dark and maintained in frozen aliquots. Doses were thawed prior to administration. Male D2-mdx (JAX Stock No: 013141) mice were sourced from The Jackson Laboratory and housed in solid bottom cages with standard chow and water ad libitum. Dosing was initiated when animals were −3 weeks old. Animals were dosed daily by intraperitoneal (IP) injection at 100 mg/kg or vehicle for 3 days. […] Mice were sacrificed by CO2 euthanasia approximately 6 hours after their day 3 dosing. Heart, diaphragm, quadriceps, tibialis anterior (TA) samples were collected at termination on day 3 and snap frozen. These samples were shipped on dry ice for analysis, and were stored at −80° C.

SMILES strings stand for the structures.

This note sets out measurements from patent US20240309015A1, “Methods for the Treatment of Fibrotic Disease” (SHY Therapeutics, LLC, priority 2021, published 2024).

On to `COCCNc1nc(-c2nccn2C)nc2sc(-c3cccc(OC)c3Cl)c(-c3ccccc3)c12` [Compound 9, 6-(2-Chloro-3-methoxyphenyl)-N-(2-methoxyethyl)-2-(1-methyl-1H-imidazol-2-yl)-5-phenylthieno[2,3-d]pyrimidin-4-amine], for which the “KRas wild type + SOS: % inh.” value in series [1] (with SOS) is listed as “D (D = 76-100% inhibition)”. The “KRas wild type: % inh.” value in [1] (without SOS) is listed as “C (C = 46-75% inhibition)”. For the same molecule, in series [2] (Table 7), the “KRas G12D mutant + SOS: % inh.” value was “C (C = 46-75% inhibition)” and the “KRas G12D mutant: % inh.” value is “C (C = 46-75% inhibition)”. In addition, in series [2] (Table 8), the “KRas G12D mutant + SOS: % inh.” value is “C (C = 46-75% inhibition)” and the “KRas G12D mutant: % inh.” value is recorded as “C (C = 46-75% inhibition)”. In addition, the “KRas G12C mutant + SOS: % inh.” value in series [3] (with SOS) is listed as “D (D = 76-100% inhibition)”. The “KRas G12C mutant: % inh.” value in series [3] (without SOS) was “B (B = 26-45% inhibition)”. In addition, the “Rho-A + SOS: % inh.” value in [4] (with SOS) is “B (B = 26-45% inhibition)”. In addition, the “Rho-A: % inh.” value in series [4] (without SOS) is recorded as “B (B = 26-45% inhibition)”. Further, in series [5], the “Tmax” value is reported as 4 h. In [6], the “Smad2 phosphorylation in the diaphragm compared to control vehicle mice” value is recorded as “inhibition of Smad2 phosphorylation”. Moreover, the “Smad2 phosphorylation in the heart” value in series [6] (D2-mdx mice) was “No changes”. Further, in [7], the “serum albumin levels in the heart” value is “No changes”; the “serum albumin levels in the tibialis anterior and quadricep muscles” value is “clear decrease”. Further, the “findings of overt toxicity” value in series [8] is recorded as “No findings of overt toxicity were observed”. For the same molecule, in [9], the “findings of overt toxicity” value was “No findings of overt toxicity were observed”.

A word on the Tmax: it is the time from dosing to the highest level.
